# Laboratory results from patent US4169197A, “6-Deoxyneamines aminoglycoside compounds” (The Upjohn Company, priority 1978, dated 1979).
# Experiments:
# Format in all cases: cell-based
# P. morganii UC 3186 = experiment: standard microplate test in BHI Agar; conditions: Morganella morganii, UC3186; BHI Agar, 37°, 20 hours; Table IV; read-out: Minimal Inhibitory Concentration
# Description: (§1) The compounds VII, XI, XVβ, XVα and XVI were tested in a standard microplate test in BHI (Brain Heart Infusion) Agar at a concentration of 1 mg./ml. and dilutions thereof at 37° incubation temperature. The end points are read out 20 hours. BHI Agar is supplied by Difco Laboratories, Detroit, Mich.
# S. aureus UC 76 = experiment: standard microplate test in BHI Agar; conditions: Staphylococcus aureus, UC76, 20 h, read-out: Minimal Inhibitory Concentration
# Description: as §1
# P. mirabilis UC 6671 = experiment: standard microplate test in BHI Agar; conditions: Proteus mirabilis, UC6671, 20 h, read-out: Minimal Inhibitory Concentration
# Description: as §1
# S. faecalis UC 694 = experiment: standard microplate test in BHI Agar; conditions: Enterococcus faecalis, UC694; BHI Agar, 37°, 20 hours; Table IV; read-out: Minimal Inhibitory Concentration
# Description: as §1
# S. pneumoniae I UC 41 = experiment: standard microplate test in BHI Agar; conditions: Streptococcus pneumoniae, UC41, 20 h, read-out: Minimal Inhibitory Concentration
# Description: as §1
# P. vulgaris UC 93 [1] = experiment: standard microplate test in BHI Agar; conditions: Proteus vulgaris, UC93, 20 h, read-out: Minimal Inhibitory Concentration
# Description: as §1
# P. rettgeri UC 339 = experiment: standard microplate test in BHI Agar; conditions: Providencia rettgeri, UC339; BHI Agar, 37°, 20 hours; Table IV; read-out: Minimal Inhibitory Concentration
# Description: as §1
# S. pyogenes UC 152 = experiment: standard microplate test in BHI Agar; conditions: Streptococcus pyogenes, UC152; BHI Agar, 37°, 20 hours; Table IV; read-out: Minimal Inhibitory Concentration
# Description: as §1
# S. schottmuelleri UC 126 [2] = experiment: standard microplate test in BHI Agar; conditions: 37°, 20 hours, Table IV, read-out: Minimal Inhibitory Concentration
# Description: as §1
# S. marcescens UC 131 = experiment: standard microplate test in BHI Agar; conditions: Serratia marcescens, UC131, 20 h, read-out: Minimal Inhibitory Concentration
# Description: as §1
# S. typhi UC 215 = experiment: standard microplate test in BHI Agar; conditions: Salmonella enterica, 20 h, read-out: Minimal Inhibitory Concentration
# Description: as §1
# S. flexneri UC 143 = experiment: standard microplate test in BHI Agar; conditions: Shigella flexneri, UC143, 37°, 20 hours, Table IV, read-out: Minimal Inhibitory Concentration
# Description: as §1
# K. pneumoniae UC 58 = experiment: standard microplate test in BHI Agar; conditions: Klebsiella pneumoniae, UC58; BHI Agar, 37°, 20 hours; Table IV; read-out: Minimal Inhibitory Concentration
# Description: as §1
# E. coli UC 311 = experiment: standard microplate test in BHI Agar; conditions: Escherichia coli, UC311, 20 h, read-out: Minimal Inhibitory Concentration
# Description: as §1
# Ps. aeruginosa UC 95 [3] = experiment: standard microplate test in BHI Agar; conditions: Pseudomonas aeruginosa, UC95; BHI Agar, 37°, 20 hours; Table IV; read-out: Minimal Inhibitory Concentration
# Description: as §1
# K. pneumoniae UC 57 = experiment: standard disc plate assay, zones of inhibition; conditions: Klebsiella pneumoniae, UC57, 12.5 mm paper discs, Table I, read-out: Zones of Inhibition
# Description: (§2) The compounds of formulas (V, VII, IX, XI, XIV, XVI, and XIX) are active as antibacterials and can be used in various environments to erradicate or control susceptible microorganisms. Tables I and II set forth the in vitro antibacterial test results for representative compounds of the present invention. The results were obtained with a standard disc plate assay using 12.5 mm paper discs.
# E. coli UC 51 = experiment: standard disc plate assay, zones of inhibition; conditions: Escherichia coli, UC51, 12.5 mm paper discs, Table I, read-out: Zones of Inhibition
# Description: as §2
# B. cereus UC 3145 = experiment: standard disc plate assay, zones of inhibition; conditions: Bacillus cereus, UC3145, 12.5 mm paper discs, Table I, read-out: Zones of Inhibition
# Description: as §2
# P. vulgaris UC 93 [4] = experiment: standard disc plate assay, zones of inhibition; conditions: Proteus vulgaris, UC93, 12.5 mm paper discs, Table I, read-out: Zones of Inhibition
# Description: as §2
# B. subtilis UC 564 = experiment: standard disc plate assay, zones of inhibition; conditions: Bacillus subtilis, UC564, 12.5 mm paper discs, Table I, read-out: Zones of Inhibition
# Description: as §2
# S. gallinarum UC 265 = experiment: standard disc plate assay, zones of inhibition; conditions: Salmonella enterica, 12.5 mm paper discs, Table I, read-out: Zones of Inhibition
# Description: as §2
# S. aureus UC 80 = experiment: standard disc plate assay, zones of inhibition; conditions: Staphylococcus aureus, UC80, 12.5 mm paper discs, Table I, read-out: Zones of Inhibition
# Description: as §2
# S. lutea UC 130 = experiment: standard disc plate assay, zones of inhibition; conditions: Micrococcus luteus, UC130; 1 mg/ml; 12.5 mm paper discs; Table I; read-out: Zones of Inhibition
# Description: as §2
# S. schottmuelleri UC 126 [5] = experiment: standard disc plate assay, zones of inhibition; conditions: 12.5 mm paper discs, Table I
# Description: as §2
# Ps. aeruginosa UC 95 [6] = experiment: standard disc plate assay, zones of inhibition; conditions: Pseudomonas aeruginosa, UC95; 1 mg/ml; 12.5 mm paper discs; Table I; read-out: Zones of Inhibition
# Description: as §2
structure (smiles),measurement,setting,value
"NC[C@H]1O[C@H](O[C@@H]2[C@@H](N)C[C@@H](N)C[C@H]2O[C@@H]2O[C@H](CO)[C@@H](O)[C@H]2O)[C@H](N)[C@@H](O)[C@@H]1O [Compound XVβ, O-2,6-diamino-2,6-dideoxy-α-D-glucopyranosyl (1→4)-O-[β-D-ribofuranosyl(1→5)]-2,6-dideoxy-D-streptamine]",MIC,P. morganii UC 3186,7.8 µg/mL
same,MIC,S. aureus UC 76,31.2 µg/mL
same,MIC,P. mirabilis UC 6671,125 µg/mL
same,MIC,S. faecalis UC 694,500 µg/mL
same,MIC,S. pneumoniae I UC 41,15.6 µg/mL
same,MIC,P. vulgaris UC 93 [1],31.2 µg/mL
same,MIC,P. rettgeri UC 339,> 500 µg/mL
same,MIC,S. pyogenes UC 152,3.9 µg/mL
same,MIC,S. schottmuelleri UC 126 [2],7.8 µg/mL
same,MIC,S. marcescens UC 131,62.5 µg/mL
same,MIC,S. typhi UC 215,15.6 µg/mL
same,MIC,S. flexneri UC 143,31.2 µg/mL
same,MIC,K. pneumoniae UC 58,2 µg/mL
same,MIC,E. coli UC 311,31.2 µg/mL
same,MIC,Ps. aeruginosa UC 95 [3],> 500 µg/mL
same,zone of inhibition at 100 µg/mL,K. pneumoniae UC 57; 0.1 mg/ml,28 mm
same,zone of inhibition at 1000 µg/mL,K. pneumoniae UC 57; 1 mg/ml,36 mm
same,zone of inhibition at 100 µg/mL,E. coli UC 51; 0.1 mg/ml,20 mm
same,zone of inhibition at 1000 µg/mL,E. coli UC 51; 1 mg/ml,27 mm
same,zone of inhibition at 100 µg/mL,B. cereus UC 3145; 0.1 mg/ml,17 mm
same,zone of inhibition at 1000 µg/mL,B. cereus UC 3145; 1 mg/ml,26 mm
same,zone of inhibition at 100 µg/mL,P. vulgaris UC 93 [4]; 0.1 mg/ml,18 mm
same,zone of inhibition at 1000 µg/mL,P. vulgaris UC 93 [4]; 1 mg/ml,27 mm
same,zone of inhibition at 100 µg/mL,B. subtilis UC 564; 0.1 mg/ml,31 mm
same,zone of inhibition at 1000 µg/mL,B. subtilis UC 564; 1 mg/ml,39 mm
same,zone of inhibition at 100 µg/mL,S. gallinarum UC 265; 0.1 mg/ml,21 mm
same,zone of inhibition at 1000 µg/mL,S. gallinarum UC 265; 1 mg/ml,29 mm
same,zone of inhibition at 100 µg/mL,S. aureus UC 80; 0.1 mg/ml,19 mm
same,zone of inhibition at 1000 µg/mL,S. aureus UC 80; 1 mg/ml,27 mm
same,zone of inhibition at 1000 µg/mL,S. lutea UC 130,19 mm
same,zone of inhibition at 100 µg/mL,S. schottmuelleri UC 126 [5]; 0.1 mg/ml,16 mm
same,zone of inhibition at 1000 µg/mL,S. schottmuelleri UC 126 [5]; 1 mg/ml,24 mm
same,zone of inhibition at 1000 µg/mL,Ps. aeruginosa UC 95 [6],15 mm
